Consider twelve compounds from US20160046592A1, “PHARMACEUTICAL COMPOSITION FOR THE TREATMENT OF DIABETES” (Ajinomoto Co., Inc., priority 2013, published 2016).

Where a name gives a salt, the structure may show the parent alone. Where only a bound is given, the exact number is not on record here.

The target in this assay is T1, human GYS1 (glycogen synthase) (Homo sapiens, UniProt P13807).
T1 construct: made in house; host or cells: HEK293T
T1 sequence (P13807 1-737): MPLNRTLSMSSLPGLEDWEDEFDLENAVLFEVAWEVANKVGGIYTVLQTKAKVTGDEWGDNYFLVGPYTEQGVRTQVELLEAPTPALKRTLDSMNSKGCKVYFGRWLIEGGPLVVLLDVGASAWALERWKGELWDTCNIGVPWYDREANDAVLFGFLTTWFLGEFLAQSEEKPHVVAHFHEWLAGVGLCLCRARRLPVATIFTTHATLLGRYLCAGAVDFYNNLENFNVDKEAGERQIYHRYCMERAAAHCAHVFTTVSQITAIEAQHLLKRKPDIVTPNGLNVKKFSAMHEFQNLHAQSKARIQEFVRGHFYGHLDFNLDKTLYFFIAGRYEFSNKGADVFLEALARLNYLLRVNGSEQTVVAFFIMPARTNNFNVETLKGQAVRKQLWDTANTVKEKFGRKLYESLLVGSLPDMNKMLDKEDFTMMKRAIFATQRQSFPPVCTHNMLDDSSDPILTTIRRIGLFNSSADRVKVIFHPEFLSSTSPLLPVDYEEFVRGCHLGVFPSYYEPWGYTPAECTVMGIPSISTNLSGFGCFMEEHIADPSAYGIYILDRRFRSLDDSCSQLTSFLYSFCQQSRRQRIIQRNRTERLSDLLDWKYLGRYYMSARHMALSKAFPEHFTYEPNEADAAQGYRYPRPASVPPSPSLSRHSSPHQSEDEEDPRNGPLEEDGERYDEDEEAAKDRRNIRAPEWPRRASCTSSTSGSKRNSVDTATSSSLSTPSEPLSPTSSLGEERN
Kind of assay: Measurement of glycogen synthase activity. It counts as biochemical. The settings on record: concentration causing 50% increase in relative activity; 100% = compound of Example 1 of WO/2011/058154 at 10 μM; 10 mM Glucose-6-phosphate; 37° C. for 25 minutes (Examples 1 to 61 and 67 to 82) or 20 minutes (Examples 62 to 66); absorbance at 340 nm. The protocol:
A human GYS1 expression plasmid (pCDNA3.1(+)-hGYS1) was constructed by the following method. By using a human skeletal muscle cDNA of Human MTC Panel I (Takara Bio Inc., 636742) as a template, a human GYS1 gene was amplified by a PCR method using cloning primers (Forward Primer: ATGCCTTTAAACCGCAC, Reverse Primer: TTAGTTACGCTCCTCGC). By using the amplified human GYS1 sequence as a template, restriction enzyme sequences were added by a PCR method using sub-cloning primers (Forward Primer: […], and Reverse Primer: […]), and then the human GYS1 gene was introduced between Xho I and Xba I sites of pCDNA3.1(+) (Invitrogen, V790-20).
Glycogen synthase was prepared by the following method. Human kidney-derived HEK293T cells were seeded in a dish (Thermo Fisher Scientific K.K., 168381) by using a 10% FBS-containing DMEM (Nacalai Tesque, Inc., 0845874) medium, and cultured overnight. Then, by using Lipofectamine LTX (Invitrogen, 15338-100), the cells were transfected with the human GYS1 expression vector according to the attached manual. After culturing under conditions of 37° C. and 5% CO2 for 2 days, the resultant was lysed in a lysis buffer (50 mM Tris-HCl (pH 8.0), 10 mM EDTA, 2 mM EGTA, 100 mM NaF, 1 mM PMSF, 1 mM DTT, and 1× Complete (Roche, 1873580)), homogenized, and then centrifuged at 16000×g at 4° C. for 15 minutes. The precipitated fraction re-dissolved by adding the lysis buffer was used as a glycogen synthase for evaluation.
The glycogen synthase activity was measured by the following method. To a polystyrene 96-well plate, solutions each containing 30 mM glycylglycine (pH 7.3), 40 mM KCl, 20 mM MgCl2, 9.2% DMSO containing one of the test compounds at one of various concentrations, and 10 mM Glucose-6-phosphate (Sigma-Aldrich, G7879) were added at 12 μL/well.
Next, a substrate solution containing 30 mM glycylglycine (pH 7.3), 4.3 mg/mL glycogen (Sigma-Aldrich, G8876), 21.6 mM UDP-glucose (Sigma-Aldrich, U4625), 21.6 mM phosphoenolpyruvic acid (Sigma-Aldrich, P0564), and 4.05 mM NADH (Sigma-Aldrich, N8129) was added at 18 μL/well.
Moreover, an enzyme solution containing 50 mM Tris-HCl (pH 8.0), 27 mM DTT (NACALAI TESQUE, INC., 14128-04), 0.2 mg/mL bovine serum albumin, 0.17 mg/mL glycogen synthase, and 1.5 μL pyruvate kinase/lactate dehydrogenase solution (Sigma-Aldrich, P0294) was added at 18 μL/well to prepare reaction solutions. After the reaction solutions were incubated (at 37° C. for 25 minutes for Examples 1 to 61 and 67 to 82 or at 37° C. for 20 minutes for Examples 62 to 66), the absorbance at 340 nm was measured by using Benchmark Plus (Bio-Rad Laboratories, Inc.).
The activity of each test compound was calculated by the following method. The absorbance at 340 nm of the reaction solution containing the compound and DMSO was subtracted from the absorbance at 340 nm of a reaction solution not containing the compound but containing only DMSO to calculate the change (ΔA340) in absorbance. The relative activity (%) of the test compound at each of the various concentrations was calculated, where the ΔA340 of a reaction solution containing the compound of Example 1 of WO/2011/058154 at a final concentration of 10 μM was taken as 100%. EC50 representing the concentration of the compound at which an increase in the relative activity by 50% was caused was calculated using XLfit (idbs).
Turning to `CSc1cc(F)c(F)cc1-c1ccc(OCc2cccc(C(=O)N(CCN3CCCC3)CC(=O)O)c2)cc1` [Example 40, 2-[[3-[[4-(4,5-Difluoro-2-methylsulfanyl-phenyl)phenoxy]methyl]benzoyl]-(2-pyrrolidin-1-ylethyl)amino]acetic Acid Trifluoroacetate], the EC50 was 0.024 µM.
For `N#CCCN(CC(=O)O)C(=O)c1cccc(COc2ccc(-c3cc(F)c(F)c4ccoc34)cc2)c1` [Example 75, 2-[2-Cyanoethyl-[3-[[4-(4,5-difluorobenzofuran-7-yl)phenoxy]methyl]benzoyl]amino]acetic Acid] the value was 0.022 µM; for `CSc1cc(F)c(F)cc1-c1ccc(OCc2cccc(C(=O)N(CC(=O)O)Cc3ccnn3C)c2)cc1` [Example 55, 2-[[3-[[4-(4,5-Difluoro-2-methylsulfanyl-phenyl)phenoxy]methyl]benzoyl]-[(2-methylpyrazol-3-yl)methyl]amino]acetic Acid], 0.022 µM.
Consider `CSc1cc(F)c(F)cc1-c1ccc(OCc2cccc(C(=O)N(CC(=O)O)C3CCNCC3)c2)cc1` [Example 36, 2-[[3-[[4-(4,5-Difluoro-2-methylsulfanyl-phenyl)phenoxy]methyl]benzoyl]-(4-piperidyl)amino]acetic Acid Trifluoroacetate], for which the EC50 worked out at 0.021 µM.
`CSc1cc(F)c(F)cc1-c1ccc(OCc2cccc(C(=O)N(CC(=O)O)CC3CCN(C)CC3)c2)cc1` [Example 37, 2-[[3-[[4-(4,5-Difluoro-2-methylsulfanyl-phenyl)phenoxy]methyl]benzoyl]-[(1-methyl-4-piperidyl)methyl]amino]acetic Acid Trifluoroacetate]: the EC50 was determined as 0.023 µM.
For `CSc1cc(F)c(F)cc1-c1ccc(OCc2cccc(C(=O)N(CC(=O)O)Cc3nc(C)no3)c2)cc1` [Example 68, 2-[[3-[[4-(4,5-Difluoro-2-methylsulfanyl-phenyl)phenoxy]methyl]benzoyl]-[(3-methyl-1,2,4-oxadiazol-5-yl)methyl]amino]acetic Acid] the value was under 0.003 µM; for `CSc1cc(F)c(F)cc1-c1ccc(OCc2cccc(C(=O)N3C[C@H](C(N)=O)C[C@H]3C(=O)O)c2)cc1` [Example 61, (2S,4R)-4-Carbamoyl-1-[3-[[4-(4,5-difluoro-2-methylsulfanyl-phenyl)phenoxy]methyl]benzoyl]pyrrolidine-2-carboxylic Acid], 0.019 µM.
For `CSc1cc(F)c(F)cc1-c1ccc(OCc2cccc(C(=O)N(CC(=O)O)Cc3ccccn3)c2)cc1` [Example 20, 2-[[3-[[4-(4,5-Difluoro-2-methylsulfanyl-phenyl)phenoxy]methyl]benzoyl]-(2-pyridylmethyl)amino]acetic Acid Trifluoroacetate] the value was 0.0065 µM; for `CSc1cc(F)c(F)cc1-c1ccc(OCc2cccc(C(=O)N(CC(=O)O)CC3CCCNC3)c2)cc1` (stereo not drawn) [Example 50, 2-[[3-[[4-(4,5-Difluoro-2-methylsulfanyl-phenyl)phenoxy]methyl]benzoyl]-(3-piperidylmethyl)amino]acetic Acid Trifluoroacetate], 0.0063 µM.
For `CN(C)CCN(CC(=O)O)C(=O)c1cccc(COc2ccc(-c3cc(F)c(F)c4ccoc34)cc2)c1` [Example 13, 2-[[3-[[4-(4,5-Difluorobenzofuran-7-yl)phenoxy]methyl]benzoyl]-(2-dimethylaminoethyl)amino]acetic Acid Trifluoroacetate] the value was 0.015 µM.
In the case of `CSc1cc(F)c(F)cc1-c1ccc(OCc2cccc(C(=O)N(CCS(=O)(=O)N(C)C)CC(=O)O)c2)cc1` [Example 59, 2-[[3-[[4-(4,5-Difluoro-2-methylsulfanyl-phenyl)phenoxy]methyl]benzoyl]-[2-(dimethylsulfamoyl)ethyl]amino]acetic Acid], the EC50 is 0.016 µM.
For `CSc1cc(F)c(F)cc1-c1ccc(OCc2cccc(C(=O)N(CCn3cncn3)CC(=O)O)c2)cc1` [Example 70, 2-[[3-[[4-(4,5-Difluoro-2-methylsulfanyl-phenyl)phenoxy]methyl]benzoyl]-[2-(1,2,4-triazol-1-yl)ethyl]amino]acetic Acid] the value was 0.021 µM.
